Measurements: the NIST ThermoML archive (doi:10.1016/j.jct.2017.07.024)

What was measured:
[1] = refractive index (Na D-line) (dimensionless); wn = mass fraction of the nth substance listed; conditions: 100 kPa, Liquid, Standard Abbe refractometry
[2] = wn = mass fraction of the nth substance listed; conditions: for surface tension liquid-gas: Maximal bubble pressure; for mass density: 100 kPa, Liquid, Vibrating tube method

CCCCCCn1cc[n+](C)c1.C[C@@H](O)[C@H](N)C(=O)[O-] [1-hexyl-3-methylimidazolium DL-threoninate] + O
Conditions	mass density, [2] [kg/m3]	refractive index, [1]	surface tension liquid-gas, [2] [mN/m]
288.15 K, w2 = 0.006	1089.58	1.5042	37.4
288.15 K, w2 = 0.0091	1089.35	1.5038	37.6
288.15 K, w2 = 0.012	1089.16	1.5034	37.8
288.15 K, w2 = 0.0149	1088.99	1.5031	38
288.15 K, w2 = 0.0172	1088.81	1.5028	38.2
293.15 K, w2 = 0.006	1086.27	1.5026	37
293.15 K, w2 = 0.0091	1086.04	1.5023	37.2
293.15 K, w2 = 0.012	1085.85	1.502	37.4
293.15 K, w2 = 0.0149	1085.68	1.5017	37.6
293.15 K, w2 = 0.0172	1085.5	1.5014	37.8
298.15 K, w2 = 0.006	1082.96	1.5012	36.7
298.15 K, w2 = 0.0091	1082.73	1.5009	36.9
298.15 K, w2 = 0.012	1082.54	1.5006	37.1
298.15 K, w2 = 0.0149	1082.37	1.5003	37.3
298.15 K, w2 = 0.0172	1082.19	1.5	37.5
303.15 K, w2 = 0.006	1079.61	1.4994	36.4
303.15 K, w2 = 0.0091	1079.38	1.4991	36.7
303.15 K, w2 = 0.012	1079.19	1.4988	36.9
303.15 K, w2 = 0.0149	1079.01	1.4985	37.1
303.15 K, w2 = 0.0172	1078.82	1.4982	37.3
308.15 K, w2 = 0.006	1076.29	1.4981	36.1
308.15 K, w2 = 0.0091	1076.06	1.4978	36.4
308.15 K, w2 = 0.012	1075.86	1.4974	36.6
308.15 K, w2 = 0.0149	1075.69	1.4971	36.8
308.15 K, w2 = 0.0172	1075.49	1.4968	37
313.15 K, w2 = 0.006	1073	1.4964	35.8
313.15 K, w2 = 0.0091	1072.76	1.4961	36.1
313.15 K, w2 = 0.012	1072.56	1.4958	36.3
313.15 K, w2 = 0.0149	1072.38	1.4955	36.5
313.15 K, w2 = 0.0172	1072.18	1.4952	36.7
318.15 K, w2 = 0.006	1069.54	1.495	35.5
318.15 K, w2 = 0.0091	1069.29	1.4947	35.8
318.15 K, w2 = 0.012	1069.09	1.4944	36
318.15 K, w2 = 0.0149	1068.91	1.4941	36.3
318.15 K, w2 = 0.0172	1068.71	1.4938	36.5
323.15 K, w2 = 0.006	1066.37	1.4933	35.2
323.15 K, w2 = 0.0091	1066.12	1.4929	35.5
323.15 K, w2 = 0.012	1065.91	1.4926	35.7
323.15 K, w2 = 0.0149	1065.72	1.4922	36
323.15 K, w2 = 0.0172	1065.51	1.4919	36.2
328.15 K, w2 = 0.006	1063.07	1.4918	34.9
328.15 K, w2 = 0.0091	1062.82	1.4914	35.2
328.15 K, w2 = 0.012	1062.61	1.4911	35.4
328.15 K, w2 = 0.0149	1062.42	1.4907	35.7
328.15 K, w2 = 0.0172	1062.21	1.4904	35.9
